Key:
rat BT4C glioma cells [1] = experiment: 2-Compartment model, subcutaneous model; format: in vivo, Foxn1^nu/nu mouse
Description: (§1) Image analysis was performed using CARIMAS software published and freely distributed by the Turku PET Center (http://turkupetcentre.fi/carimas/). CT scans were used as rough anatomical reference while tumor regions of interest (ROI) were hand-drawn based upon observed spikes of radioactivity in the PET images at locations correlating with recorded tumor grafts. Control muscle ROIs were drawn on the side opposite to the tumor in the leg flank muscle (based on CT) while the blood ROI was drawn based upon heart anatomical location and observed PET image radioactivity spike during the initial 20 s of imaging in the left ventricle. Standardized uptake values (SUV) were calculated with respect to ROI volume, mean and max tumor radioactivity, total injected radioactivity dose (corrected for tail, cannula, and syringe residual radioactivity), and animal weight, and were additionally presented as tumor-to-background ratio (TBR, tumor-to-healthy brain region for intracranial gliomas and tumor-to-muscle for subcutaneous gliomas) as defined by recent glioma research literature standards. Mean and maximum TBR values were reported as ROI radioactivity per volume divided by mean background radioactivity per volume. The blood radioactivity SUV and gender-specific metabolite-corrected blood radioactivity SUV were then applied to multiple pharmacokinetic models to characterize the flux of the tracer (further described in the “Modeling” section).
(§2) Using the heart’s left ventricle ROI from the PET data as an uncorrected radioactivity level input and the bioavailable parent-tracer fraction (results: Eqs. 3 and 4 applied to the uncorrected input) as the corrected input, multiple models were investigated to characterize the tissue uptake dynamics. Two-compartment modeling and Logan, Patlak, and Yokoi plots were used to separately model the pharmacokinetics for the gliomas (both subcutaneous and orthotopic loci) and their respective control tissues (healthy muscle and healthy brain, respectively). Where indicated, means plus/minus standard deviations are reported. Difference in parameters for uncorrected versus correct and target tissue versus their respective control regions were tested with students’ paired t tests with P values lower than 0.05 being considered significant.

[2] = system: patient-derived BT3 glioma cells; experiment: Yokoi plot, orthotopic model; format: in vivo, BALB/cOlaHsd-Foxn1^nu mouse; conditions: for Yokoi K1 (AB) plasma to tissue transport rate / Yokoi K1/k2 (AB) binding potential / Yokoi k2 (AB) tissue to plasma transport rate: AB input; for Yokoi K1 (PC) plasma to tissue transport rate / Yokoi K1/k2 (PC) binding potential / Yokoi k2 (PC) tissue to plasma transport rate: PC input
Description: as §1, §2

rat BT4C glioma cells [3] = experiment: Logan plot (reversible uptake model), subcutaneous model; format: in vivo, Foxn1^nu/nu mouse; conditions: for AB distribution volume: arterial blood input; for PC distribution volume: plasma-corrected input; for Logan DV (AB) distribution volume / Logan Ic (AB) y intercept: AB input; for Logan DV (PC) distribution volume / Logan IC (PC) y intercept: PC input
Description: as §1, §2

[4] = Bone (femoral condyle) average (n = 6), arterial blood input
[5] = Bone (femoral condyle) average (n=6), plasma-corrected input
[6] = Flank muscle average (n = 6), arterial blood input
[7] = Flank muscle average (n=6), plasma-corrected input
[8] = Flank tumor average (n = 6), arterial blood input
[9] = Flank tumor average (n=6), plasma-corrected input
[10] = Neck tumor average (n = 6), arterial blood input
[11] = Neck tumor average (n=6), plasma-corrected input
[12] = Bone (femoral condyle) average (n = 6)

Which results are given for `NC(=O)[C@H]([18F])C[C@H](N)C(=O)O` [[^18F]FGln, (2S, 4R)-4-[^18F]fluoroglutamine]?
2-Compartment K1 (rat BT4C glioma cells [1]; [4]): 0.309 ± 0.179 mL min-1 mL-1; 2-Compartment K1/k2 (rat BT4C glioma cells [1]; [4]): 0.745 ± 0.194 mL mL-1; 2-Compartment Vb (rat BT4C glioma cells [1]; [4]): 5.45 ± 2.53%; 2-Compartment k3 (rat BT4C glioma cells [1]; [4]): 0.075 ± 0.034 min⁻¹; 2-Compartment k3*K1/k2 (rat BT4C glioma cells [1]; [4]): 0.052 ± 0.017; 2-Compartment k3/(k2+k3) (rat BT4C glioma cells [1]; [4]): 0.171 ± 0.083; 2-Compartment K1 (rat BT4C glioma cells [1]; [5]): 0.402 ± 0.206 mL min-1 mL-1; 2-Compartment K1/k2 (rat BT4C glioma cells [1]; [5]): 0.649 ± 0.191 mL mL-1; 2-Compartment Vb (rat BT4C glioma cells [1]; [5]): 3.21 ± 3.57%; 2-Compartment k3 (rat BT4C glioma cells [1]; [5]): 0.148 ± 0.063 min⁻¹; 2-Compartment k3*K1/k2 (rat BT4C glioma cells [1]; [5]): 0.086 ± 0.024; 2-Compartment k3/(k2+k3) (rat BT4C glioma cells [1]; [5]): 0.198 ± 0.079; 2-Compartment K1 (rat BT4C glioma cells [1]; [6]): 0.079 ± 0.027 mL min-1 mL-1; 2-Compartment K1/k2 (rat BT4C glioma cells [1]; [6]): 0.564 ± 0.130 mL mL-1; 2-Compartment Vb (rat BT4C glioma cells [1]; [6]): 2.33 ± 1.07%; 2-Compartment k3 (rat BT4C glioma cells [1]; [6]): 0.009 ± 0.005 min⁻¹; 2-Compartment k3*K1/k2 (rat BT4C glioma cells [1]; [6]): 0.005 ± 0.002; 2-Compartment k3/(k2+k3) (rat BT4C glioma cells [1]; [6]): 0.061 ± 0.038; 2-Compartment K1 (rat BT4C glioma cells [1]; [7]): 0.081 ± 0.027 mL min-1 mL-1; 2-Compartment K1/k2 (rat BT4C glioma cells [1]; [7]): 0.797 ± 0.163 mL mL-1; 2-Compartment Vb (rat BT4C glioma cells [1]; [7]): 2.8 ± 1.12%; 2-Compartment k3 (rat BT4C glioma cells [1]; [7]): 0.015 ± 0.005 min⁻¹; 2-Compartment k3*K1/k2 (rat BT4C glioma cells [1]; [7]): 0.012 ± 0.003; 2-Compartment k3/(k2+k3) (rat BT4C glioma cells [1]; [7]): 0.136 ± 0.055; 2-Compartment K1 (rat BT4C glioma cells [1]; [8]): 0.147 ± 0.028 mL min-1 mL-1; 2-Compartment K1/k2 (rat BT4C glioma cells [1]; [8]): 0.973 ± 0.187 mL mL-1; 2-Compartment Vb (rat BT4C glioma cells [1]; [8]): 5.59 ± 2.78%; 2-Compartment k3 (rat BT4C glioma cells [1]; [8]): 0.005 ± 0.004 min⁻¹; 2-Compartment k3*K1/k2 (rat BT4C glioma cells [1]; [8]): 0.004 ± 0.003; 2-Compartment k3/(k2+k3) (rat BT4C glioma cells [1]; [8]): 0.028 ± 0.021; 2-Compartment K1 (rat BT4C glioma cells [1]; [9]): 0.148 ± 0.027 mL min-1 mL-1; 2-Compartment K1/k2 (rat BT4C glioma cells [1]; [9]): 1.369 ± 0.273 mL mL-1; 2-Compartment Vb (rat BT4C glioma cells [1]; [9]): 6.64 ± 3.1%; 2-Compartment k3 (rat BT4C glioma cells [1]; [9]): 0.010 ± 0.004 min⁻¹; 2-Compartment k3*K1/k2 (rat BT4C glioma cells [1]; [9]): 0.013 ± 0.003; 2-Compartment k3/(k2+k3) (rat BT4C glioma cells [1]; [9]): 0.086 ± 0.028; 2-Compartment K1 (rat BT4C glioma cells [1]; [10]): 0.202 ± 0.079 mL min-1 mL-1; 2-Compartment K1/k2 (rat BT4C glioma cells [1]; [10]): 1.129 ± 0.141 mL mL-1; 2-Compartment Vb (rat BT4C glioma cells [1]; [10]): 8.28 ± 5.95%; 2-Compartment k3 (rat BT4C glioma cells [1]; [10]): 0.002 ± 0.002 min⁻¹; 2-Compartment k3*K1/k2 (rat BT4C glioma cells [1]; [10]): 0.002 ± 0.002; 2-Compartment k3/(k2+k3) (rat BT4C glioma cells [1]; [10]): 0.015 ± 0.013; 2-Compartment K1 (rat BT4C glioma cells [1]; [11]): 0.202 ± 0.072 mL min-1 mL-1; 2-Compartment K1/k2 (rat BT4C glioma cells [1]; [11]): 1.567 ± 0.209 mL mL-1; 2-Compartment Vb (rat BT4C glioma cells [1]; [11]): 9.79 ± 6.85%; 2-Compartment k3 (rat BT4C glioma cells [1]; [11]): 0.008 ± 0.002 min⁻¹; 2-Compartment k3*K1/k2 (rat BT4C glioma cells [1]; [11]): 0.013 ± 0.002; 2-Compartment k3/(k2+k3) (rat BT4C glioma cells [1]; [11]): 0.065 ± 0.026; Yokoi K1 (AB) plasma to tissue transport rate ([2]; Subject A brain (control)): 0.018 mL min-1 mL-1; Yokoi K1/k2 (AB) binding potential ([2]; Subject A brain (control)): 0.34 mL mL-1; Yokoi k2 (AB) tissue to plasma transport rate ([2]; Subject A brain (control)): 0.054 min⁻¹; Yokoi K1 (PC) plasma to tissue transport rate ([2]; Subject A brain (control)): 0.019 mL min-1 mL-1; Yokoi K1/k2 (PC) binding potential ([2]; Subject A brain (control)): 0.68 mL mL-1; Yokoi k2 (PC) tissue to plasma transport rate ([2]; Subject A brain (control)): 0.028 min⁻¹; Yokoi K1 (AB) plasma to tissue transport rate ([2]; Subject A glioma max.): 0.120 mL min-1 mL-1; Yokoi K1/k2 (AB) binding potential ([2]; Subject A glioma max.): 1.59 mL mL-1; Yokoi k2 (AB) tissue to plasma transport rate ([2]; Subject A glioma max.): 0.075 min⁻¹; Yokoi K1 (PC) plasma to tissue transport rate ([2]; Subject A glioma max.): 0.121 mL min-1 mL-1; Yokoi K1/k2 (PC) binding potential ([2]; Subject A glioma max.): 2.95 mL mL-1; Yokoi k2 (PC) tissue to plasma transport rate ([2]; Subject A glioma max.): 0.041 min⁻¹; Yokoi K1 (AB) plasma to tissue transport rate ([2]; Subject A o.t. glioma): 0.078 mL min-1 mL-1; Yokoi K1/k2 (AB) binding potential ([2]; Subject A o.t. glioma): 1.50 mL mL-1; Yokoi k2 (AB) tissue to plasma transport rate ([2]; Subject A o.t. glioma): 0.052 min⁻¹; Yokoi K1 (PC) plasma to tissue transport rate ([2]; Subject A o.t. glioma): 0.083 mL min-1 mL-1; Yokoi K1/k2 (PC) binding potential ([2]; Subject A o.t. glioma): 2.96 mL mL-1; Yokoi k2 (PC) tissue to plasma transport rate ([2]; Subject A o.t. glioma): 0.028 min⁻¹; Yokoi K1 (AB) plasma to tissue transport rate ([2]; Subject B brain (control)): 0.015 mL min-1 mL-1; Yokoi K1/k2 (AB) binding potential ([2]; Subject B brain (control)): 0.33 mL mL-1; Yokoi k2 (AB) tissue to plasma transport rate ([2]; Subject B brain (control)): 0.045 min⁻¹; Yokoi K1 (PC) plasma to tissue transport rate ([2]; Subject B brain (control)): 0.015 mL min-1 mL-1; Yokoi K1/k2 (PC) binding potential ([2]; Subject B brain (control)): 0.69 mL mL-1; Yokoi k2 (PC) tissue to plasma transport rate ([2]; Subject B brain (control)): 0.022 min⁻¹; Yokoi K1 (AB) plasma to tissue transport rate ([2]; Subject B glioma max.): 0.046 mL min-1 mL-1; Yokoi K1/k2 (AB) binding potential ([2]; Subject B glioma max.): 1.29 mL mL-1; Yokoi k2 (AB) tissue to plasma transport rate ([2]; Subject B glioma max.): 0.036 min⁻¹; Yokoi K1 (PC) plasma to tissue transport rate ([2]; Subject B glioma max.): 0.049 mL min-1 mL-1; Yokoi K1/k2 (PC) binding potential ([2]; Subject B glioma max.): 2.79 mL mL-1; Yokoi k2 (PC) tissue to plasma transport rate ([2]; Subject B glioma max.): 0.017 min⁻¹; Yokoi K1 (AB) plasma to tissue transport rate ([2]; Subject B o.t. glioma): 0.045 mL min-1 mL-1; Yokoi K1/k2 (AB) binding potential ([2]; Subject B o.t. glioma): 0.99 mL mL-1; Yokoi k2 (AB) tissue to plasma transport rate ([2]; Subject B o.t. glioma): 0.046 min⁻¹; Yokoi K1 (PC) plasma to tissue transport rate ([2]; Subject B o.t. glioma): 0.047 mL min-1 mL-1; Yokoi K1/k2 (PC) binding potential ([2]; Subject B o.t. glioma): 1.96 mL mL-1; Yokoi k2 (PC) tissue to plasma transport rate ([2]; Subject B o.t. glioma): 0.024 min⁻¹; AB distribution volume (rat BT4C glioma cells [3]; Bone (femoral condyle) (n = 6)): 5.11 ± 2.19; PC distribution volume (rat BT4C glioma cells [3]; Bone (femoral condyle) (n = 6)): 13.47 ± 7.70; Logan DV (AB) distribution volume (rat BT4C glioma cells [3]; [12]): 5.11 ± 2.19; Logan Ic (AB) y intercept (rat BT4C glioma cells [3]; [12]): -66.36 ± 26.46; Logan DV (PC) distribution volume (rat BT4C glioma cells [3]; [12]): 13.47 ± 7.70; Logan IC (PC) y intercept (rat BT4C glioma cells [3]; [12]): -142.79 ± 84.46; AB distribution volume (rat BT4C glioma cells [3]; Flank muscle (n = 6)): 0.77 ± 0.13; PC distribution volume (rat BT4C glioma cells [3]; Flank muscle (n = 6)): 1.38 ± 0.23; Logan DV (AB) distribution volume (rat BT4C glioma cells [3]; Flank muscle average (n = 6)): 0.77 ± 0.13; Logan Ic (AB) y intercept (rat BT4C glioma cells [3]; Flank muscle average (n = 6)): -15.28 ± 5.34; Logan DV (PC) distribution volume (rat BT4C glioma cells [3]; Flank muscle average (n = 6)): 1.38 ± 0.23; Logan IC (PC) y intercept (rat BT4C glioma cells [3]; Flank muscle average (n = 6)): -27.58 ± 7.76; AB distribution volume (rat BT4C glioma cells [3]; Flank tumor (n = 6)): 1.13 ± 0.09; PC distribution volume (rat BT4C glioma cells [3]; Flank tumor (n = 6)): 1.96 ± 0.15; Logan DV (AB) distribution volume (rat BT4C glioma cells [3]; Flank tumor average (n = 6)): 1.13 ± 0.09; Logan Ic (AB) y intercept (rat BT4C glioma cells [3]; Flank tumor average (n = 6)): -10.31 ± 3.60; Logan DV (PC) distribution volume (rat BT4C glioma cells [3]; Flank tumor average (n = 6)): 1.96 ± 0.15; Logan IC (PC) y intercept (rat BT4C glioma cells [3]; Flank tumor average (n = 6)): -19.79 ± 4.89; AB distribution volume (rat BT4C glioma cells [3]; Neck tumor (n = 6)): 1.21 ± 0.08; PC distribution volume (rat BT4C glioma cells [3]; Neck tumor (n = 6)): 2.08 ± 0.13; Logan DV (AB) distribution volume (rat BT4C glioma cells [3]; Neck tumor average (n = 6)): 1.21 ± 0.08; Logan Ic (AB) y intercept (rat BT4C glioma cells [3]; Neck tumor average (n = 6)): -7.63 ± 2.79; Logan DV (PC) distribution volume (rat BT4C glioma cells [3]; Neck tumor average (n = 6)): 2.08 ± 0.13; Logan IC (PC) y intercept (rat BT4C glioma cells [3]; Neck tumor average (n = 6)): -16.47 ± 3.85

Reference: publication PMC7343746, “(2S, 4R)-4-[^18F]Fluoroglutamine for In vivo PET Imaging of Glioma Xenografts in Mice: an Evaluation of Multiple Pharmacokinetic Models” (Molecular Imaging and Biology, 2020)
